This is an account of results in article PMC9541843, “N‐terminal alterations turn the gut hormone GLP‐2 into an antagonist with gradual loss of GLP‐2 receptor selectivity towards more GLP‐1 receptor interaction” (British Journal of Pharmacology, 2022).

In general, Emax refers to the maximal effect, on the per cent scale that the assay sets. What is called EC50 is the concentration giving half of the maximal effect. As a reminder, the IC50 is the concentration that inhibits the measured activity by half. A high value points to a need for much substance.

Test [1] deals with T1, human GLP‐2R (Homo sapiens, UniProt O95838).
T1 sequence (O95838 1-553): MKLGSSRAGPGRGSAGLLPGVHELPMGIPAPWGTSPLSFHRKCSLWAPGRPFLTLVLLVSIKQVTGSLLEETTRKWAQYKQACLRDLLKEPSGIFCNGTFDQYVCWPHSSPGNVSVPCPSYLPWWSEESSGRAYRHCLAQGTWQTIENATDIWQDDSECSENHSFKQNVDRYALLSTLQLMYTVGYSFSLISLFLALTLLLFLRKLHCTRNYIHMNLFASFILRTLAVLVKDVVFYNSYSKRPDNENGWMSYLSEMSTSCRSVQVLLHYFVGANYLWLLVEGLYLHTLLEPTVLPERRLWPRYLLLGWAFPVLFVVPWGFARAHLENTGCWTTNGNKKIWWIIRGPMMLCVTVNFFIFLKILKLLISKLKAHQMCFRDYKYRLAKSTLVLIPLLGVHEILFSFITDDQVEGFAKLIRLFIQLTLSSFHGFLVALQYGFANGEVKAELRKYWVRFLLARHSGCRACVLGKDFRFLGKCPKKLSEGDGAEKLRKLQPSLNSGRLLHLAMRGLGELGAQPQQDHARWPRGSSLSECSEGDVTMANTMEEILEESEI
Kind of test: cAMP accumulation, agonism (HitHunter cAMP assay). The conditions noted are these: for Emax: COS-7, read-out: cAMP activation Emax ± SEM.

Test [2] has as its target T1, human GLP‐2R. In words: cAMP accumulation, inhibition of GLP‐2‐induced activation. The conditions noted are these: for IC50: SEM; for cAMP inhibition Log IC50 ± SEM / cAMP inhibition IC50: COS‐7 cells, human GLP‐2R, n = 3 in duplicate; for cAMP inhibition Log IC50 ± SEM: 10 min preincubation with antagonist, then GLP‐2 for 20 min, mean ± SEM; for cAMP inhibition IC50: inhibition of GLP‐2‐induced cAMP.

The target in test [3] is T1, human GLP‐2R. Kind of test: cell-based. The conditions noted are these: SEM.
Description: After incubation, the cells were washed twice in 400 μl per well ice‐cold binding buffer and lysed using 500 μl per well of 200 mM NaOH with 1% SDS for 30 min. The samples were counted using the Wizard Gamma Counter (PerkinElmer, Waltham, MA).
Statistical significance was accepted at P < 0.05.

Molecules are shown by their SMILES. Where two headings read alike, the source gives them in different places. Peptide text beside a SMILES is read from it.

For the compound `CC[C@H](C)[C@H](NC(=O)[C@H](Cc1ccccc1)NC(=O)[C@H](CC(=O)O)NC(=O)[C@H](CCCNC(=N)N)NC(=O)[C@H](C)NC(=O)[C@H](C)NC(=O)[C@H](CC(C)C)NC(=O)[C@H](CC(N)=O)NC(=O)[C@H](CC(=O)O)NC(=O)[C@H](CC(C)C)NC(=O)[C@@H](NC(=O)[C@@H](NC(=O)[C@H](CC(N)=O)NC(=O)[C@H](CCSC)NC(=O)[C@H](CCC(=O)O)NC(=O)[C@H](CC(=O)O)NC(=O)[C@H](CO)NC(=O)[C@H](Cc1ccccc1)NC(=O)[C@@H](N)CO)[C@@H](C)O)[C@@H](C)CC)C(=O)N[C@@H](CC(N)=O)C(=O)N[C@@H](Cc1c[nH]c2ccccc12)C(=O)N[C@@H](CC(C)C)C(=O)N[C@H](C(=O)N[C@@H](CCC(N)=O)C(=O)N[C@H](C(=O)N[C@@H](CCCCN)C(=O)N[C@H](C(=O)N[C@H](C(=O)N[C@@H](CC(=O)O)C(=O)O)[C@@H](C)O)[C@@H](C)CC)[C@@H](C)O)[C@@H](C)CC` [GLP‐2(5‐33)] (H-SFSDEMNTILDNLAARDFINWLIQTKITD-OH), the Emax in test [1] (SEM) worked out at 40 ± 4.1%. The compound also had an EC50 in test [1] (SEM) of 25.1 nM. For the same compound, the IC50 in test [2] is 200 nM; in test [3] it was 12.6 nM.

Turning to `CC[C@H](C)[C@H](NC(=O)[C@H](Cc1ccccc1)NC(=O)[C@H](CC(=O)O)NC(=O)[C@H](CCCNC(=N)N)NC(=O)[C@H](C)NC(=O)[C@H](C)NC(=O)[C@H](CC(C)C)NC(=O)[C@H](CC(N)=O)NC(=O)[C@H](CC(=O)O)NC(=O)[C@H](CC(C)C)NC(=O)[C@@H](NC(=O)[C@@H](NC(=O)[C@H](CC(N)=O)NC(=O)[C@H](CCSC)NC(=O)[C@H](CCC(=O)O)NC(=O)[C@H](CC(=O)O)NC(=O)[C@H](CO)NC(=O)[C@@H](N)Cc1ccccc1)[C@@H](C)O)[C@@H](C)CC)C(=O)N[C@@H](CC(N)=O)C(=O)N[C@@H](Cc1c[nH]c2ccccc12)C(=O)N[C@@H](CC(C)C)C(=O)N[C@H](C(=O)N[C@@H](CCC(N)=O)C(=O)N[C@H](C(=O)N[C@@H](CCCCN)C(=O)N[C@H](C(=O)N[C@H](C(=O)N[C@@H](CC(=O)O)C(=O)O)[C@@H](C)O)[C@@H](C)CC)[C@@H](C)O)[C@@H](C)CC` [GLP‐2(6‐33)] (H-FSDEMNTILDNLAARDFINWLIQTKITD-OH), in test [1] (SEM), the Emax was found to be 46 ± 5.1%. Besides, in test [1] (SEM), it took 39.8 nM to reach a half-maximal effect (EC50). For the same compound, the IC50 is 501 nM in test [2] and 31.6 nM in test [3].

In test [1], `CC[C@H](C)[C@H](NC(=O)[C@H](Cc1ccccc1)NC(=O)[C@H](CC(=O)O)NC(=O)[C@H](CCCNC(=N)N)NC(=O)[C@H](C)NC(=O)[C@H](C)NC(=O)[C@H](CC(C)C)NC(=O)[C@H](CC(N)=O)NC(=O)[C@H](CC(=O)O)NC(=O)[C@H](CC(C)C)NC(=O)[C@@H](NC(=O)[C@@H](NC(=O)[C@H](CC(N)=O)NC(=O)[C@H](CCSC)NC(=O)[C@H](CCC(=O)O)NC(=O)[C@H](CC(=O)O)NC(=O)[C@@H](N)CO)[C@@H](C)O)[C@@H](C)CC)C(=O)N[C@@H](CC(N)=O)C(=O)N[C@@H](Cc1c[nH]c2ccccc12)C(=O)N[C@@H](CC(C)C)C(=O)N[C@H](C(=O)N[C@@H](CCC(N)=O)C(=O)N[C@H](C(=O)N[C@@H](CCCCN)C(=O)N[C@H](C(=O)N[C@H](C(=O)N[C@@H](CC(=O)O)C(=O)O)[C@@H](C)O)[C@@H](C)CC)[C@@H](C)O)[C@@H](C)CC` [GLP‐2(7‐33)] (H-SDEMNTILDNLAARDFINWLIQTKITD-OH) displayed an EC50 of 126 nM. Also, the Emax in test [1] (SEM) was 27 ± 3.8%. In addition, in test [2], the “cAMP inhibition Log IC50 ± SEM” value was “No inhibition” and the “cAMP inhibition IC50” value was “No inhibition”. In test [3], this compound gave an IC50 of 20 nM.

`CC[C@H](C)[C@H](NC(=O)[C@H](Cc1ccccc1)NC(=O)[C@H](CC(=O)O)NC(=O)[C@H](CCCNC(=N)N)NC(=O)[C@H](C)NC(=O)[C@H](C)NC(=O)[C@H](CC(C)C)NC(=O)[C@H](CC(N)=O)NC(=O)[C@H](CC(=O)O)NC(=O)[C@H](CC(C)C)NC(=O)[C@@H](NC(=O)[C@@H](NC(=O)[C@H](CC(N)=O)NC(=O)[C@H](CCSC)NC(=O)[C@H](CCC(=O)O)NC(=O)[C@@H](N)CC(=O)O)[C@@H](C)O)[C@@H](C)CC)C(=O)N[C@@H](CC(N)=O)C(=O)N[C@@H](Cc1c[nH]c2ccccc12)C(=O)N[C@@H](CC(C)C)C(=O)N[C@H](C(=O)N[C@@H](CCC(N)=O)C(=O)N[C@H](C(=O)N[C@@H](CCCCN)C(=O)N[C@H](C(=O)N[C@H](C(=O)N[C@@H](CC(=O)O)C(=O)O)[C@@H](C)O)[C@@H](C)CC)[C@@H](C)O)[C@@H](C)CC` [GLP‐2(8‐33)] (H-DEMNTILDNLAARDFINWLIQTKITD-OH): in test [1] (SEM), the Emax is 19 ± 3% and the EC50 was 63.1 nM. Moreover, in test [2], the “cAMP inhibition Log IC50 ± SEM” value is “No inhibition” and the “cAMP inhibition IC50” value is reported as “No inhibition”. For the same compound, the midpoint of inhibition in test [3], the IC50, lay at 79.4 nM.

For `CC[C@H](C)[C@H](NC(=O)[C@H](Cc1ccccc1)NC(=O)[C@H](CC(=O)O)NC(=O)[C@H](CCCNC(=N)N)NC(=O)[C@H](C)NC(=O)[C@H](C)NC(=O)[C@H](CC(C)C)NC(=O)[C@H](CC(N)=O)NC(=O)[C@H](CC(=O)O)NC(=O)[C@H](CC(C)C)NC(=O)[C@@H](NC(=O)[C@@H](NC(=O)[C@H](CC(N)=O)NC(=O)[C@H](CCSC)NC(=O)[C@@H](N)CCC(=O)O)[C@@H](C)O)[C@@H](C)CC)C(=O)N[C@@H](CC(N)=O)C(=O)N[C@@H](Cc1c[nH]c2ccccc12)C(=O)N[C@@H](CC(C)C)C(=O)N[C@H](C(=O)N[C@@H](CCC(N)=O)C(=O)N[C@H](C(=O)N[C@@H](CCCCN)C(=O)N[C@H](C(=O)N[C@H](C(=O)N[C@@H](CC(=O)O)C(=O)O)[C@@H](C)O)[C@@H](C)CC)[C@@H](C)O)[C@@H](C)CC` [GLP‐2(9‐33)] (H-EMNTILDNLAARDFINWLIQTKITD-OH), in test [1] (SEM), the Emax amounted to 65 ± 3.6% and a half-maximal effect (EC50) was put at 200 nM. In test [2], the “cAMP inhibition Log IC50 ± SEM” value was “No inhibition” and the “cAMP inhibition IC50” value is “No inhibition”. In test [3], this compound showed an IC50 of 79.4 nM.

On to `CC[C@H](C)[C@H](NC(=O)[C@H](Cc1ccccc1)NC(=O)[C@H](CC(=O)O)NC(=O)[C@H](CCCNC(=N)N)NC(=O)[C@H](C)NC(=O)[C@H](C)NC(=O)[C@H](CC(C)C)NC(=O)[C@H](CC(N)=O)NC(=O)[C@H](CC(=O)O)NC(=O)[C@H](CC(C)C)NC(=O)[C@@H](NC(=O)[C@@H](NC(=O)[C@H](CC(N)=O)NC(=O)[C@@H](N)CCSC)[C@@H](C)O)[C@@H](C)CC)C(=O)N[C@@H](CC(N)=O)C(=O)N[C@@H](Cc1c[nH]c2ccccc12)C(=O)N[C@@H](CC(C)C)C(=O)N[C@H](C(=O)N[C@@H](CCC(N)=O)C(=O)N[C@H](C(=O)N[C@@H](CCCCN)C(=O)N[C@H](C(=O)N[C@H](C(=O)N[C@@H](CC(=O)O)C(=O)O)[C@@H](C)O)[C@@H](C)CC)[C@@H](C)O)[C@@H](C)CC` [GLP‐2(10‐33)] (H-MNTILDNLAARDFINWLIQTKITD-OH), for which the “cAMP activation Log EC50 ± SEM” value in test [1] (COS‐7 cells, human GLP‐2R, 30 min at 37°C, mean ± SEM, n = 3 in duplicate) was “No activation”. Moreover, in test [1] (COS‐7 cells, human GLP‐2R, 30 min at 37°C, n = 3 in duplicate), the “cAMP activation EC50” value is “No activation”. Besides, the concentration for half-maximal inhibition (IC50) was 407 nM in test [2] and 126 nM in test [3].
